Source: the supplement of paper PMC9663587

Assays:
Assay in all cases: GRmax, 72 h; higher = less effect;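 further: breast cell lines in 384-well plates, nine doses across a 10^4 range, Dye Drop imaging of viable cells vs DMSO and time-zero plates, GR 0 means no net growth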
HCC1395 = test system: HCC1395
HCC1954 = test system: HCC1954
HCC70 = test system: HCC70
HS578T = test system: HS578T
MCF7 = test system: MCF7
MDAMB453 = test system: MDAMB453
SKBR3 = test system: SKBR3
SUM149 = test system: SUM149
SUM185PE = test system: SUM185PE
SUM44PE = test system: SUM44PE
UACC893 = test system: UACC893
ZR751 = test system: ZR751

| SMILES | GRmax, 72 h (HCC1395) | GRmax, 72 h (HCC1954) | GRmax, 72 h (HCC70) | GRmax, 72 h (HS578T) | GRmax, 72 h (MCF7) | GRmax, 72 h (MDAMB453) | GRmax, 72 h (SKBR3) | GRmax, 72 h (SUM149) | GRmax, 72 h (SUM185PE) | GRmax, 72 h (SUM44PE) | GRmax, 72 h (UACC893) | GRmax, 72 h (ZR751) | GRmax, 72 h (HCC1395; main component drawn) | GRmax, 72 h (HCC1954; main component drawn) | GRmax, 72 h (HCC70; main component drawn) | GRmax, 72 h (HS578T; main component drawn) | GRmax, 72 h (MCF7; main component drawn) | GRmax, 72 h (MDAMB453; main component drawn) | GRmax, 72 h (SKBR3; main component drawn) | GRmax, 72 h (SUM149; main component drawn) |
| --- | --- | --- | --- | --- | --- | --- | --- | --- | --- | --- | --- | --- | --- | --- | --- | --- | --- | --- | --- | --- |
| CNc1nc(-c2ccc3c(N)n[nH]c3c2)cc(N2C[C@@H](C(=O)NC3CCCCC3)CC[C@H]2C)n1 (max 10 µM) | 0.518 GR | 0.733 GR | 0.15 GR | 0.538 GR | 0.295 GR | 0.147 GR | 0.307 GR | 0.698 GR | 0.54 GR | 0.166 GR | 0.144 GR | 0.425 GR |  |  |  |  |  |  |  |  |
| CCOc1cc2ncc(C#N)c(Nc3ccc(OCc4ccccn4)c(Cl)c3)c2cc1NC(=O)/C=C/CN(C)C [Neratinib/HKI272] (max 3.162 µM) | 0.0167 GR | -0.0909 GR | 0.0595 GR | -0.161 GR | 0.0582 GR | -0.322 GR | -0.253 GR | 0.155 GR | 0.25 GR | -0.202 GR | -0.901 GR | 0.709 GR |  |  |  |  |  |  |  |  |
| Cc1cc(C(C)Nc2ccccc2)c2nc(N3CCOCC3)cc(=O)n2c1 (stereo not drawn) [TGX221] (max 10 µM) | 0.458 GR | 0.961 GR | 0.0049 GR | 0.709 GR | 0.789 GR | 0.828 GR | 0.75 GR | 1.02 GR | 0.509 GR | 1.04 GR | 0.939 GR | 0.239 GR |  |  |  |  |  |  |  |  |
| CN(C)C/C=C/C(=O)Nc1ccc(C(=O)Nc2cccc(Nc3cc(-c4c[nH]c5ccccc45)ncn3)c2)cc1 [THZ-P1-2] (max 10 µM) | -0.908 GR | -0.649 GR | -0.837 GR | 0.92 GR | -0.708 GR | -0.706 GR | -0.777 GR | -0.589 GR | -0.295 GR | -0.518 GR | -0.761 GR | 0.262 GR |  |  |  |  |  |  |  |  |
| Cc1c(N)nc([C@H](CC(N)=O)NC[C@H](N)C(N)=O)nc1C(=O)N[C@H](C(=O)N[C@H](C)[C@@H](O)[C@H](C)C(=O)N[C@H](C(=O)NCCc1nc(-c2nc(C(=O)NCCC[S+](C)C)cs2)cs1)[C@@H](C)O)[C@@H](OC1OC(CO)C(O)C(O)C1OC1OC(CO)C(O)C(OC(N)=O)C1O)c1cnc[nH]1 (stereo partly drawn) [Bleomycin] (max 10 µM) |  |  |  |  |  |  |  |  |  |  |  |  | -0.402 GR | -0.0884 GR | -0.115 GR | -0.197 GR | -0.0459 GR | 0.0154 GR | 0.187 GR | -0.315 GR |
| NC1(C(=O)N[C@@H](CCO)c2ccc(Cl)cc2)CCN(c2nc[nH]c3nccc2-3)CC1 [AZD5363] (max 10 µM) | 0.0739 GR | 0.272 GR | -0.292 GR | 0.349 GR | 0.476 GR | 0.23 GR | 0.138 GR | 0.34 GR | 0.447 GR | -0.152 GR | -0.798 GR | 0.686 GR |  |  |  |  |  |  |  |  |
| COc1cc2nccc(Oc3ccc(NC(=O)C4(C(=O)Nc5ccc(F)cc5)CC4)cc3)c2cc1OC [Cabozantinib] (max 10 µM) | 0.114 GR | 0.639 GR | -0.0911 GR | 0.215 GR | -0.0993 GR | 0.465 GR | 0.442 GR | 0.3 GR | 0.0169 GR | 0.288 GR | 0.735 GR | 1.06 GR |  |  |  |  |  |  |  |  |
| CN1CCN(CCOc2cc(OC3CCOCC3)c3c(Nc4c(Cl)ccc5c4OCO5)ncnc3c2)CC1 [Saracatinib/AZD0530] (max 10 µM) | 0.12 GR | 0.0936 GR | -0.172 GR | 0.189 GR | 0.274 GR | 0.393 GR | 0.279 GR | 0.188 GR | 0.419 GR | 0.381 GR | 0.141 GR | 0.328 GR |  |  |  |  |  |  |  |  |
| CN(C)C/C=C/C(=O)Nc1ccc(C(=O)N2CCC[C@@H](Nc3ncc(Cl)c(-c4c[nH]c5ccccc45)n3)C2)cc1 [THZ531] (max 1 µM) | -0.587 GR | -0.303 GR | -0.933 GR | -0.246 GR | -0.367 GR | -0.294 GR | -0.619 GR | -0.509 GR | -0.175 GR | -0.203 GR | -0.417 GR | -0.242 GR |  |  |  |  |  |  |  |  |
| O=C(CCCCCCC(=O)Nc1ccccc1)NO [Vorinostat] (max 10 µM) | -0.0589 GR | -0.14 GR | -0.476 GR | -0.169 GR | -0.175 GR | -0.608 GR | -0.632 GR | -0.0704 GR | 0.222 GR | -0.427 GR | -0.337 GR | -0.0452 GR |  |  |  |  |  |  |  |  |
| CO[C@H]1C[C@@H]2CC[C@@H](C)[C@@](O)(O2)C(=O)C(=O)N2CCCC[C@H]2C(=O)O[C@H]([C@H](C)C[C@@H]2CC[C@@H](OCCO)[C@H](OC)C2)CC(=O)[C@H](C)/C=C(\C)[C@@H](O)[C@@H](OC)C(=O)[C@H](C)C[C@H](C)/C=C/C=C/C=C/1C [Everolimus] (max 10 µM) | 0.404 GR | 0.326 GR | 0.373 GR | 0.42 GR | 0.387 GR | 0.0309 GR | 0.118 GR | 0.737 GR | 0.78 GR | 0.19 GR | 0.159 GR | 0.305 GR |  |  |  |  |  |  |  |  |
| CN(C)C(=O)c1cc2cnc(Nc3ccc(N4CCNCC4)cn3)nc2n1C1CCCC1 [LEE011/Ribociclib] (max 10 µM) | 0.403 GR | 0.543 GR | 1.04 GR | 0.376 GR | 0.31 GR | 0.189 GR | 0.476 GR | 0.605 GR | 0.824 GR | 0.378 GR | 0.469 GR | 0.381 GR |  |  |  |  |  |  |  |  |
| CCNC(=O)c1noc(-c2cc(C(C)C)c(O)cc2O)c1-c1ccc(CN2CCOCC2)cc1 [Luminespib/NVP-AUY922] (max 1 µM) | -0.152 GR | -0.374 GR | -0.583 GR | -0.114 GR | 0.0015 GR | -0.499 GR | -0.0766 GR | -0.392 GR | -0.103 GR | -0.483 GR | -0.898 GR | 0.0576 GR |  |  |  |  |  |  |  |  |
| COc1ccc2c(c1)[C@]1(C[C@H]1c1ccc3c(/C=C/c4ccc(CN5C[C@@H](C)O[C@@H](C)C5)cc4)n[nH]c3c1)C(=O)N2 | -0.178 GR | -0.209 GR | -0.31 GR | -0.103 GR | -0.0551 GR | 0.0847 GR | -0.0682 GR | -0.0713 GR | 0.364 GR | -0.249 GR | 0.138 GR | 0.166 GR |  |  |  |  |  |  |  |  |
| CCc1cncnc1N1CCN(Cc2nc3ccc(C(F)(F)F)cc3[nH]2)CC1 (max 10 µM) | 0.659 GR | 0.835 GR | 0.935 GR | 0.914 GR | 0.558 GR | 0.0482 GR | 0.734 GR | 0.746 GR | 0.182 GR | 0.292 GR | 0.351 GR | 0.867 GR |  |  |  |  |  |  |  |  |
| CC(C)Nc1cc(-c2c[nH]c(C(=O)N[C@H](CO)c3cccc(Cl)c3)c2)c(Cl)cn1 [BVD523] (max 10 µM) | 0.253 GR | 0.264 GR | 0.461 GR | 0.259 GR | 0.334 GR | 0.387 GR | 0.34 GR | 0.204 GR | 0.734 GR | -0.0062 GR | 0.274 GR | 0.554 GR |  |  |  |  |  |  |  |  |
